Measurements reported in US10195196B2, “1,4-disubstituted pyridazine analogs there of and methods for treating SMN-deficiency-related conditions” (NOVARTIS AG, priority 2012, dated 2019).
pEC50: −log10 of the molar value.

Test system: SMN protein
Assay: cellular SMN ELISA (SMN protein elevation)
Type: cell-based
Details: myoblast cell line from SMNdelta7 mouse model, 24 hours treatment; for SMN activity Fold: fold activation over DMSO control
Procedure: A cellular SMN ELISA was used to measure the effects of low molecular weight compounds on SMN protein elevation. Cells from a myoblast cell line derived from the SMNdelta7 mouse model (kind gift from Steve Burden, NYU) were seeded into a 384-well plate at a density of 3000 cells/well and treated with compounds for 24 hours. ELISA capture plates were prepared by coating 384-well plates (Immulon 4HBX) with 0.5 ug/mL of anti-SMN mAb (BD Science, Catalog number 610647) at 4° C. overnight. The plates were washed 5 times with 110 uL of PBS-Tween (0.05% Tween-20, PBST), blocked with 100 uL of 1% BSA in PBST for 2 hours and washed (5 times) with 100 uL of PBST. After 24 hours of compound treatment cells were lysed in a modified RIPA-buffer, on ice for 1 hour. 20 uL of lysate and 20 uL of 1% BSA were then added to the ELISA capture plates and incubated at 4° C. overnight. Plates were washed (5 times) with PBST and then incubated with 1:100 dilution of primary rabbit anti-SMN polyclonal antibody (Santa cruz, Catalog number SC-15320) at room temperature for 1 hour and subsequently washed (5 times) with 110 uL of PBST. This was followed by addition of 1:100 Goat anti-Rabbit IgG-HRP linked (Cell Signaling, Catalog number 7074) secondary antibody for 1 hour. Plates were then washed with PBST and incubated with 40 uL TMB substrate (Cell Signaling, Catalog number 7004L) at room temperature for 1-10 minutes with shaking. The reaction was stopped by addition of 40 uL of stop solution (Cell signaling, Catalog number 7002L) and absorption was measured at 450 nm. Data was reported as fold activation over DMSO control, and EC50.
ELISA assay condition 1: compound concentration range 20 nM-10 uM; ELISA assay condition 2: compound concentration 100 pM-10 uM.

[1] = ELISA condition 2: compound concentration 100 pM-10 uM
[2] = ELISA condition 1: compound concentration range 20 nM-10 uM

| pEC50 [1] | pEC50 [2] | Structure (SMILES) | SMN activity Fold [1] [Fold] | SMN activity Fold [2] [Fold] |
| --- | --- | --- | --- | --- |
| 5.49 |  | Oc1cc2ccccc2cc1-c1ccc(NC2CNC2)nn1 [Example 18-2, 3-[6-(azetidin-3-ylamino)-pyridazin-3-yl]-naphthalen-2-ol] | 1.97 |  |
|  | 6.18 | Oc1cc(-n2cccn2)ccc1-c1ccc(NC2CNC2)nn1 [Example 18-3, 2-[6-(azetidin-3-ylamino)-pyridazin-3-yl]-5-pyrazol-1-yl-phenol] |  | 1.95 |
| 6.41 |  | CC1CN(c2ccc(-c3ccc(-n4cccn4)cc3O)nn2)CC(C)N1 (stereo not drawn) [Example 18-4, 2-[6-(3,5-dimethyl-piperazin-1-yl)-pyridazin-3-yl]-5-pyrazol-1-yl-phenol] | 2.84 |  |
| 6.82 |  | CN1CCC2(CCN(c3ccc(-c4ccc(-n5cccn5)cc4O)nn3)C2)C1 (stereo not drawn) [Example 18-5, 2-[6-(7-methyl-2,7-diaza-spiro[4.4]non-2-yl)-pyridazin-3-yl]-5-pyrazol-1-yl-phenol] | 2.66 |  |
| 6.57 |  | Oc1cc(-n2cccn2)ccc1-c1ccc(N2CCCNCC2)nn1 [Example 18-6, 2-(6-[1,4]diazepan-1-yl-pyridazin-3-yl)-5-pyrazol-1-yl-phenol] | 2.54 |  |
| 5.58 |  | OCCN1CCN(c2ccc(-c3ccc(-n4cccn4)cc3O)nn2)CC1 [Example 18-7, 2-{6-[4-(2-hydroxy-ethyl)-piperazin-1-yl]-pyridazin-3-yl}-5-pyrazol-1-yl-phenol] | 2.67 |  |
| 6.01 |  | Oc1cc(-n2cccn2)ccc1-c1ccc(N2CC3CNC(C3)C2)nn1 (stereo not drawn) [Example 18-8, 2-[6-(3,6-diaza-bicyclo[3.2.1]oct-3-yl)-pyridazin-3-yl]-5-pyrazol-1-yl-phenol] | 2.32 |  |
|  | 5.93 | Oc1cc(-n2cccn2)ccc1-c1ccc(N2CCC3(CC2)CNC3)nn1 [Example 18-9, 2-[6-(2,7-diaza-spiro[3.5]non-7-yl)-pyridazin-3-yl]-5-pyrazol-1-yl-phenol] |  | 1.93 |
| 6.41 |  | OCC1CN(c2ccc(-c3ccc(-n4cccn4)cc3O)nn2)CCN1 (stereo not drawn) [Example 18-10, 2-[6-(3-hydroxy-methyl-piperazin-1-yl)-pyridazin-3-yl]-5-pyrazol-1-yl-phenol] | 2.55 |  |
| 6.49 |  | Oc1cc(-n2cccn2)ccc1-c1ccc(N2CCC3(CCCN3)C2)nn1 (stereo not drawn) [Example 18-11, 2-[6-(1,7-diaza-spiro[4.4]non-7-yl)-pyridazin-3-yl]-5-pyrazol-1-yl-phenol] | 2.53 |  |
| 6.10 |  | CC1(N)CCN(c2ccc(-c3ccc(-n4cccn4)cc3O)nn2)CC1 [Example 18-12, 2-[6-(4-amino-4-methyl-piperidin-1-yl)-pyridazin-3-yl]-5-pyrazol-1-yl-phenol] | 2.62 |  |
| 5.91 |  | CN(C)C1CCCN(c2ccc(-c3ccc(-n4cccn4)cc3O)nn2)C1 (stereo not drawn) [Example 18-13, 2-[6-(3-dimethyl-amino-piperidin-1-yl)-pyridazin-3-yl]-5-pyrazol-1-yl-phenol] | 2.28 |  |
|  | 7.77 | CN1C(C)(C)CC(Nc2ccc(-c3ccc(-n4cccn4)cc3O)nn2)CC1(C)C [Example 18-14, 2-[6-(1,2,2,6,6-pentamethyl-piperidin-4-ylamino)-pyridazin-3-yl]-5-pyrazol-1-yl-phenol] |  | 2.62 |
| 6.15 |  | CC1(C)CN(c2ccc(-c3ccc(-n4cccn4)cc3O)nn2)CCN1 [Example 18-15, 2-[6-(3,3-dimethyl-piperazin-1-yl)-pyridazin-3-yl]-5-pyrazol-1-yl-phenol] | 2.30 |  |
| 6.64 |  | OCCN1CCC2(CCN(c3ccc(-c4ccc(-n5cccn5)cc4O)nn3)C2)C1 (stereo not drawn) [Example 18-16, 2-(6-(7-(2-hydroxyethyl)-2,7-diazaspiro[4.4]-nonan-2-yl)pyridazin-3-yl)-5-(1H-pyrazol-1-yl)phenol] | 3.25 |  |
| 6.80 |  | Oc1cc(-n2cccn2)ccc1-c1ccc(N2C[C@H]3CNC[C@H]3C2)nn1 [Example 18-17, 2-(6-((3aR,6aS)-hexahydropyrrolo[3,4-c]pyrrol-2(1H)-yl)pyridazin-3-yl)-5-(1H-pyrazol-1-yl)phenol] | 2.85 |  |
| 7.25 |  | Oc1ccc2cc(-c3ccc(N4CCNCC4)nn3)c(O)cc2c1 [Example 18-18, 3-(6-(piperazin-1-yl)pyridazin-3-yl)naphthalene-2,7-diol] | 2.57 |  |
| 6.40 |  | Oc1cc(-n2cccn2)ccc1-c1ccc(C2CCNCC2)nn1 [Example 19-2, 2-(6-piperidin-4-yl-pyridazin-3-yl)-5-pyrazol-1-yl-phenol] | 2.73 |  |
| 6.40 |  | CC1(C)C=C(c2ccc(-c3cc4ccc(O)cc4cc3O)nn2)CC(C)(C)N1 [Example 19-5, 3-(6-(2,2,6,6-tetramethyl-1,2,3,6-tetrahydropyridin-4-yl)pyridazin-3-yl)naphthalene-2,7-diol] | 2.58 |  |
| 7.43 |  | Oc1ccc2cc(-c3ccc(C4CCNCC4)nn3)c(O)cc2c1 [Example 19-7, 3-(6-(piperidin-4-yl)pyridazin-3-yl)naphthalene-2,7-diol] | 3.07 |  |
| 7.74 |  | CC1(C)CC(Oc2ccc(-c3cc4ccc(O)cc4cc3O)nn2)CC(C)(C)N1 [Example 20-1, 3-(6-((2,2,6,6-tetramethylpiperidin-4-yl)oxy)pyridazin-3-yl)naphthalene-2,7-diol] | 2.75 |  |
| 8.10 |  | CC1(C)CC(Nc2ccc(-c3cc4ccc(O)cc4cc3O)nn2)CC(C)(C)N1 [Example 20-3, 3-(6-((2,2,6,6-tetramethylpiperidin-4-yl)amino)pyridazin-3-yl)naphthalene-2,7-diol] | 3.42 |  |

| Structure (SMILES) | pEC50 [1] | pEC50 [2] | SMN activity Fold [1] [Fold] | SMN activity Fold [2] [Fold] |
| --- | --- | --- | --- | --- |
| Oc1cc(-n2cccn2)ccc1-c1ccc(C2=CCNCC2)nn1 [Example 19-1, 5-pyrazol-1-yl-2-[6-(1,2,3,6-tetrahydro-pyridin-4-yl)-pyridazin-3-yl]-phenol] | 6.32 |  | 2.77 |  |
| Oc1cc2ccccc2cc1-c1ccc(C2=CCNCC2)nn1 [Example 19-3, 3-(6-(1,2,3,6-tetra-hydropyridin-4-yl)pyridazin-3-yl)naphthalen-2-ol] | 6.81 |  | 2.19 |  |
| Oc1ccc2cc(-c3ccc(C4=CCNCC4)nn3)c(O)cc2c1 [Example 19-4, 3-(6-(1,2,3,6-tetrahydropyridin-4-yl)pyridazin-3-yl)naphthalene-2,7-diol] | 7.60 |  | 2.47 |  |
| CN1CC=C(c2ccc(-c3cc4ccc(O)cc4cc3O)nn2)CC1 [Example 19-6, 3-(6-(1-methyl-1,2,3,6-tetrahydropyridin-4-yl)pyridazin-3-yl)naphthalene-2,7-diol] | 7.40 |  | 2.33 |  |
| CN(c1ccc(-c2cc3ccc(O)cc3cc2O)nn1)C1CC(C)(C)NC(C)(C)C1 [Example 20-2, 3-(6-(methyl(2,2,6,6-tetramethylpiperidin-4-yl)amino)pyridazin-3-yl)naphthalene-2,7-diol] | 8.40 |  | 2.79 |  |
